Assay results from US9241928B2, “Antimicrobial compounds” (The General Hospital Corporation, priority 2009, dated 2016).
≈ marks a conversion by molar mass, not a printed value.

Key:
E. faecalis MMH594 = assay: MIC assay, E. faecalis in vitro; format: cell-based; settings: Enterococcus faecalis; E. faecalis MMH594 in 20% BHI, 80% M9, 37° C., 15 hours, scored by eye
Procedure: A culture of E. faecalis MMH594 was grown overnight in BHI broth to stationary phase at 37° C. with aeration. The culture was diluted to an approximate density of […] in worm infection media (20% BHI, 80% M9 buffer). 12.5 μl of the bacterial culture dilution was inoculated into 384-well plates containing 12.5 μl of 2-fold serial dilutions of a test compound. […] Plates were incubated at 37° C. for 15 hours and scored by eye for bacterial growth.

[1] = test system: MRSA infection in Caenorhabditis elegans; assay: MRSA infection assay in C. elegans (liquid); format: in vivo; settings: 6.25 and 12.5 μg/ml, 5 days
Excerpt: To screen/test candidate compounds for their efficacy against Methicillin-resistant Staphylococcus aureus (MRSA) using Caenorhabditis elegans (C. elegans), a liquid high throughput screening assay was developed. In contrast to the Enterococcus faecalis infection assay, where worms are pre-infected with E. faecalis on agar prior to the start of the screening assay and then infected worms are transferred to microtiter plates using the COPAS BioSort robot, the infection of worms with MRSA occurred directly in the liquid medium. This liquid infection protocol with MRSA was developed because the COPAS BioSort, the large particle sorter used to dispense worms into multiwell plates, is a pressurized system that can generate aerosols. Because MRSA is a potentially dangerous pathogen for immune competent individuals, sorting MRSA-infected worms in the COPAS BioSort was deemed to be potentially hazardous.
The MRSA infection assay was carried out by incubating C. elegans with three MRSA strains (i.e., USA100, USA400 and MW2) in 96 or 384-well microtiter plates and assessing whether worms were live or dead after a 5 day incubation.
The MRSA infection assay was performed as follows: Worms were grown on agar using non-pathogenic E. coli as a food source until they reached the L4/young adult stage. A small volume of M9 buffer was added to the agar plates to float worms gently off the food source. The worms were then transferred into a large conical tube and washed 2 times by allowing worms to settle, aspirating the supernatant and adding fresh M9 buffer. 15 worms were then transferred using a COPAS BioSort large particle sorter into a 96-well plate containing […] of M9. […] After the worms were stained for 18 hours, images of the plates were acquired in bright field and red fluorescence channels using a Molecular Devices Discovery-1 or ImageXpress automated microscopy system. The total number of worms was counted in the bright field image and the number of dead animals are determined by positive SYTOX staining. […]

[2] = test system: P. aeruginosa strain PA14 infection in Caenorhabditis elegans; assay: Liquid assay for PA14 infection of C. elegans; format: in vivo
Procedure: A liquid assay for PA14 infection of C. elegans in a 96-well plate format was developed. In brief, temperature-sterile glp-4 and glp-4;sek-1 worms were synchronized according to standard protocols. L1 larvae were plated, incubated for 16 hours at 15° C., and then for an additional 48 hours at […], which brought them to a young adult stage. In parallel, PA14 bacteria were grown overnight prior to being plated on SK medium plates (see Tan et al., Proc. Natl. Acad. Sci., 96(2): 715-720). PA14-inoculated plates were incubated for 24 hours at 37° C. prior to an 18 hours incubation at 25° C. Subsequently, bacteria were removed from plates and resuspended in S Basal media (see Stiernagle, (2006) “Maintenance of C. elegans” WormBook, ed. The C. elegans. Research Community http://www.wormbook.org/). 96-well polystyrene plates were prepared with a medium containing either 20% SK and 80% S Basal or 50% SK and 50% S Basal, with a bacterial density of OD600=0.03. […] Dispensation of 25 young adult glp-4 or glp-4; sek-1 worms to each well using a COPAS BioSort robot brought the final total volume to […]. After worms were added, each plate was sealed with a gas permeable membrane and incubated for 48 hours at 25° C. […] Worms were stained for 18 hours at 20° C. and each well was photographed using bright-field and red fluorescence channels with a Molecular Devices Discovery-1 Microscope.

PA14 = assay: Growth of PA14 in presence of compound (data not shown); format: cell-based, Pseudomonas aeruginosa; settings: 3.125 μg/mL

NNc1ccc2c(Cl)cc(Cl)c(O)c2n1 [Compound 11]
MIC (E. faecalis MMH594): 6.25 µg/mL (≈ 25.6 µM) | survival of MRSA-infected worms (FIG. 4) [1]: resulted in survival of MRSA-infected worms | mortality of PA14-infected worms ([2]; 3.125 μg/mL, glp-4 and glp-4;sek-1 worms, 48 hours): ≤ 30% | effect of increasing the dosage on efficacy ([2]; 6.25 and 20 μg/mL versus 3.125 μg/mL): did not increase its efficacy | effect on PA14 (growth) (PA14): unaffected
